This is an account of results in patent US10214512B2, “Factor XIA inhibitors” (MERCK SHARP & DOHME CORP., priority 2015, dated 2019).

Read-outs that look alike come from different tables or passages of the source.

In test [1] the target is purified Human plasma Kallikrein (Homo sapiens (Human), UniProt P03952). The test can be described thus: Kallikrein Assay. The format is biochemical. In a few lines: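 Purified human plasma kallikrein (0.5 nM) with fluorogenic Ac-K-P-R-AFC ([…]) in 50 mM HEPES pH 7.4, 150 mM NaCl, 5 mM CaCl2, 0.1% PEG 8000, at rt or 37 °C. Substrate hydrolysis rate read with and without inhibitor; IC50 from four-parameter logistic fit, converted to Ki by Cheng–Prusoff.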

For test [2], the target named is purified human Factor XIa (Homo sapiens (Human), UniProt P03951). In words: Factor XIa Assay. In kind it is biochemical. Particulars: purified human Factor XIa 40 pM; substrate Z-Gly-Pro-Arg-AFC 100 μM; 50 mM HEPES pH 7.4; read-out: Human FXIa Ki. In a few lines: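 Ki obtained from the dependence of uninhibited/inhibited initial-velocity ratio on inhibitor concentration, under a competitive-inhibition model. Reactions used 100 μM Z-Gly-Pro-Arg-AFC and 40 pM final human Factor XIa in pH 7.4 HEPES buffer with NaCl, CaCl2 and PEG 8000; run at rt or 37° C following pre-equilibration.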

[3] abbreviates: purified Human plasma Kallikrein 0.5 nM, substrate Acetyl-K-P-R-AFC, 50 mM HEPES pH 7.4, Ki from IC50 by Cheng Prusoff.

Chain of purified Human plasma Kallikrein (P03952 391-638): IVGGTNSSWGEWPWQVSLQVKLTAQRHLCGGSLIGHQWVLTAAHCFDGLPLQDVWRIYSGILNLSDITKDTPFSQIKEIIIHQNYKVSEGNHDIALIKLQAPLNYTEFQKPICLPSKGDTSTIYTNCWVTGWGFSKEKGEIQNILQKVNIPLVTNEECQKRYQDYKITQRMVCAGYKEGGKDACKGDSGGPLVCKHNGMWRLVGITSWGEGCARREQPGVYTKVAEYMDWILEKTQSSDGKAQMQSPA
Chain of purified Human plasma Kallikrein (P03952 20-390 partner): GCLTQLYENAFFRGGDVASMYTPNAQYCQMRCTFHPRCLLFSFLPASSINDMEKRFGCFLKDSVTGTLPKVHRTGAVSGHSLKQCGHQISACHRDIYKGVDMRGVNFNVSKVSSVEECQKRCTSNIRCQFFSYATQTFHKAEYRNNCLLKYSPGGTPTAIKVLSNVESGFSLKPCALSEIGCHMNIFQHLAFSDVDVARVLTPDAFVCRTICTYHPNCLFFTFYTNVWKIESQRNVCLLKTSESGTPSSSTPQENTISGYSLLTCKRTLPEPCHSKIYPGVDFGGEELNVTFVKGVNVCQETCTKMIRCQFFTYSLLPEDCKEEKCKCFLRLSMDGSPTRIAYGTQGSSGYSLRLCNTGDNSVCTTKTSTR
Chain of purified human Factor XIa (P03951 388-625): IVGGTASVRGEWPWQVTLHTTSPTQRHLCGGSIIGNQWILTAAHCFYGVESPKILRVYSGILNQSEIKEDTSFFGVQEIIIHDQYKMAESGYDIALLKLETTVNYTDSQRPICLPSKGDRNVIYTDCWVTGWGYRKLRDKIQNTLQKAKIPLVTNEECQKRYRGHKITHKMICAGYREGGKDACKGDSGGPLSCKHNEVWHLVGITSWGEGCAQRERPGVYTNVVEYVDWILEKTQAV
Chain of purified human Factor XIa (P03951 19-387 partner): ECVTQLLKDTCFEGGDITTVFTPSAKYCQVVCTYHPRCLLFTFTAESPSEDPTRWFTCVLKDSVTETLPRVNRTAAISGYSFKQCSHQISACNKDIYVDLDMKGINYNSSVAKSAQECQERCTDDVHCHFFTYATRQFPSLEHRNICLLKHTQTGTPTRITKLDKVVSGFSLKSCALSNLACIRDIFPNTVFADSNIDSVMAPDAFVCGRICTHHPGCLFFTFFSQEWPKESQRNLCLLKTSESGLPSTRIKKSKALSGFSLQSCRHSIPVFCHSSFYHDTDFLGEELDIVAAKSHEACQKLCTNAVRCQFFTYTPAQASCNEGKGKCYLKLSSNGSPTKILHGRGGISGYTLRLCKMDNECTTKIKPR

Regarding `COC(=O)Nc1ccc2c(c1)NC(=O)CCCC[C@H](c1ccc(-c3cc(Cl)ccc3-n3cc(C(F)(F)F)nn3)c[n+]1[O-])c1cccc-2c1` [Example 39, (S)-5-(5-chloro-2-(4-(trifluoromethyl)-1H-1,2,3-triazol-1-yl)phenyl)-2-(2^4-((methoxycarbonyl)amino)-4-oxo-3-aza-1(1,3),2(1,2)-dibenzenacyclononaphane-9-yl)pyridine 1-oxide], the Ki (in general, a measure of affinity in units of concentration, obtained from inhibition or displacement) in test [1] (setting [3]) came out at 0.81 nM; in test [2], 0.26 nM.
In the case of `Cc1[nH]c2nc1-c1cc(F)ccc1NC(=O)CCCC[C@@H]2c1ccc(-c2cc(F)ccc2-n2cnnn2)c[n+]1[O-]` (single isomer, unassigned) [Example 142], the figures for the Ki in test [1] (setting [3]) and in test [2] were 56.7 nM and 0.47 nM, respectively.
Consider `COC(=O)Nc1ccc2c(c1)NC(=O)CC1CC1CC(c1ccc(-c3c(C(F)F)ccc(C)c3F)c[n+]1[O-])c1nc-2c(C)[nH]1` (racemic) [Example 158], for which the Ki in test [1] (setting [3]) worked out at 4.92 nM; in test [2] it was 1.07 nM.
With `O=C1CCCCC(c2ccc(-c3c(-n4cnnn4)ccc(Cl)c3F)c[n+]2[O-])c2c[nH]c(n2)-c2cc(F)ccc2N1` (racemic) [Example 161, (Z)-5-(3-chloro-2-fluoro-6-(1H-tetrazol-1-yl)phenyl)-2-(2^5-fluoro-4-oxo-1^1H-3-aza-1(2,4)-imidazola-2(1,2)-benzenacyclononaphane-9-yl)pyridine 1-oxide], the figures for the inhibitory constant (Ki) in test [1] (setting [3]) and in test [2] were 1.35 nM and 0.55 nM, respectively.
With `COC(=O)Nc1ccc2c(c1)NC(=O)CCCC[C@H](c1ccc(-c3c(F)cccc3C(F)(F)F)c[n+]1[O-])c1nc-2c(C)[nH]1` (single isomer, unassigned) [Example 122], the Ki came to 2.96 nM in test [1] (setting [3]) and 0.36 nM in test [2].
The corresponding values for `O=C1CCCCC(c2ccc(-c3cc(F)ccc3-n3cnnn3)c[n+]2[O-])c2cccc(c2)-c2cc(F)ccc2N1` (single isomer, unassigned) [Example 89-a, 5-(5-fluoro-2-(1H-tetrazol-1-yl)phenyl)-2-(2^5-fluoro-4-oxo-3-aza-1(1,3),2(1,2)-dibenzenacyclononaphane-9-yl)pyridine 1-oxide] are 13.6 nM and 0.39 nM.
The corresponding values for `COC(=O)Nc1ccc2c(c1)NC(=O)CCCCC(c1ccc(-c3cc(Cl)ccc3-n3cnnn3)c[n+]1[O-])c1cc(F)cc-2c1` (stereo not shown) [Example 52, 5-(5-chloro-2-(1h-tetrazol-1-yl)phenyl)-2-(1^5-fluoro-2^4-((methoxycarbonyl)amino)-4-oxo-3-aza-1(1,3),2(1,2) -dinenzenacyclononaphane-9-yl)pyridine 1-oxide] are 1.43 nM and 0.32 nM.
As for `COC(=O)Nc1ccc2c(c1)NC(=O)C1(CCC[C@H](c3ccc(-c4c(F)cccc4OC(F)F)c[n+]3[O-])c3nc-2c(C)[nH]3)CC1` (single isomer, unassigned) [Example 148], the values for the Ki in test [1] (setting [3]) and in test [2] were 37.3 nM and 2.5 nM, respectively.
Turning to `COC(=O)Nc1ccc2c(c1)NC(=O)CCCCC(c1ccc(-c3c(F)ccc(Cl)c3F)c[n+]1[O-])c1cccc-2c1` (single isomer, unassigned) [Example 13-a, 5-(3-Chloro-2,6-difluorophenyl)-2-(2^4-((methoxycarbonyl)amino)-4-oxo-3-aza-1(1,3),2(1,2)-dibenzenacyclononaphane-9-yl)pyridine 1-oxide], the inhibition constant (Ki) in test [1] (setting [3]) was found to be 1.55 nM; in test [2] it was 0.36 nM.
On to `O=C1CCCC[C@H](c2ccc(-c3cc(Cl)ccc3-n3cnnn3)c[n+]2[O-])c2cccc(c2)-c2cc(C(=O)O)ccc2N1` [Example 4-a, 2-(2^5-Carboxy-4-oxo-3-aza-1(1,3),2(1,2)-dibenzenacyclononaphane-9-yl)-5-(5-chloro-2-(1H-tetrazol-1-yl)phenyl)pyridine 1-oxide], for which the Ki in test [1] was determined as 3.41 nM; in test [2], 0.31 nM.
`COC(=O)Nc1ccc2c(c1)NC(=O)CCCCC(c1ccc(-c3cc(Cl)ccc3-n3cnnn3)c[n+]1[O-])c1nc-2c[nH]1` (single isomer, unassigned) [Example 98-a, (Z)-5-(5-chloro-2-(1H-tetrazol-1-yl)phenyl)-2-(2^4-((methoxycarbonyl)amino)-4-oxo-1^1H-3-aza-1(4,2)-imidazola-2(1,2) -benzenacyclononaphane-9-yl)pyridine 1-oxide]: the Ki in test [1] (setting [3]) was 0.49 nM; in test [2] it was 0.51 nM.
